Data reported in patent US20090170788A1, “NOVEL USE OF 1, 2, 3, 4, 6-PENTA-O-GALLOYL-BETA-D-GLUCOSE” (priority 2006, published 2009).

Experiments:
[1] = tested on: MMP-1; assay: MMP-1 expression in skin of UV-irradiated hairless mice (immunohistochemistry); type: in vivo, mouse; conditions: UV B 10 weeks, topical 10 mg/200 μl/4 cm^2
From the text: (§1) The mice of each of the groups were put in an UV box equipped with an UV B lamp, and were irradiated with UV light at a dose of 100 mJ/cm^2 corresponding to minimal erythemal dose (MED). UV light was irradiated one time a day, three times a week for 4 weeks while increasing the dose of UV light from 100 mJ/cm^2 at the first week to 200 mJ/cm^2 at the second week, 300 mJ/cm^2 at the third week and 400 mJ/cm^2 at the fourth week so as to adapt the mice to UV light. Following the fourth week, the mice were irradiated with UV light at a dose of 400 mJ/cm^2 for 6 weeks, and thus the hairless mice were exposed to UV light for a total of 10 weeks, thereby inducing skin photoaging. (Kilgman L H, Clin Dermatol 14:183-195, 1996). In the case of the test group, starting from 4 weeks after UV irradiation, a composition containing 1,2,3,4,6-penta-O-galloyl-beta-D-glucose was dissolved in a propylene glycol solution containing 30% ethanol (7:3 [v/v] propylene glycol:ethanol) and applied to the skin of the mice in an amount of 10 mg/200 μl/4 cm^2. In the case of the group treated with UV light alone, a composition containing no 1,2,3,4,6-penta-O-galloyl-beta-D-glucose was applied to the mice in an amount of 200 μl/4 cm^2 in the same manner as the test group. […]

[2] = tested on: COX-2; assay: COX-2 protein expression (Western blot) in UV B-irradiated human keratinocytes (HaCaT); type: cell-based; conditions: HaCaT cells, UV B 10 mJ/cm^2, 1, 10, 30, 50 μM, 12 hours
Method: Human keratinocytes (HaCaT cell) provided by professor N. Fusenig (German Cancer Research, Germany) were seeded into a 100 mm culture dish to 1.3×10^6 cells, and then cultured in a DMEM medium containing 10% fetal bovine serum for 24 hours. After the culture, the cells were washed three times with phosphate buffered saline, and then irradiated with UV B in the following manner in order to induce skin aging. UV B was irradiated using an UV B lamp to a total energy dose of 10 mJ/cm^2 at a rate of 0.6 mW/cm^2/sec. Just after the UV irradiation, the cells were washed again with phosphate buffered saline, and 1,2,3,4,6-penta-O-galloyl-beta-D-glucose was added to a DMEM medium containing no fetal bovine serum at concentrations of 1, 10, 30, 50 μM. Then, the cells were further cultured in the medium for 12 hours. Test groups were divided as follows: After the 12-hr culture, the cells were washed with cold phosphate buffered saline, and then treated with lysis buffer to separate a cell protein. Then, the cell protein was subjected to Western blot analysis using a COX-2 antibody (Santa Cruz Biotch., USA) and a horseradish peroxidase-conjugated secondary antibody (ZYMED Laboratories, USA). As a loading control group, […] was used.

[3] = tested on: type I procollagen; assay: Type I procollagen expression (ELISA) in UV-irradiated human normal dermal fibroblasts; type: cell-based
Method: (§2) Human normal dermal fibroblasts, which were isolated and cultured from the skin dermal layer cut from infant phimosis, were seeded into a 6-well plate at a density of 1×10^5 cells/well, and then cultured in 10% fetal bovine serum-containing DMEM (Dulbecco's modified Eagle's medium) for 24 hours. After the culture, the cells were washed three times with phosphate buffered saline (PBS) and then irradiated with UV A and […] in the following manner in order to induce skin aging. UV A was irradiated using a UV A lamp (Sankyo Denki FL8BL lamp, Sankyo Denki Co., Japan) to a total energy dose of 50 mJ/cm^2 at a rate of 27 mW/cm^2/sec, and UV B was irradiated using a UV B lamp (Sankyo Denki G9T5E lamp, Sankyo Denki Co., Japan) to a total energy dose of 170 mJ/cm^2 at a rate of 1.15 mW/cm^2/sec. […] In order to examine if the skin was aged after the culture, the expression levels of skin intercellular matrix component type I procollagen and its degradation enzyme MMP-1 were measured using a type I procollagen ELISA kit (Procollagen Type I C-Peptide EIA kit, TaKaRa, Japan) and a MMP-1 ELISA kit (MMP-1 human, ELISA system, Biotrak Assay, Amersham Biosciences, USA) according to manufacturer's protocols. […]

[4] = tested on: MMP-1; assay: MMP-1 expression (ELISA) in UV-irradiated human normal dermal fibroblasts; type: cell-based
Method: as §2

[5] = tested on: albino SKH-1 hairless mice; assay: Wrinkle formation caused by UV light in hairless mouse model (skin photographs, skin replica); type: in vivo; conditions: UV B 10 weeks, topical 10 mg/200 μl/4 cm^2 starting from 4 weeks after UV irradiation
From the text: Whether 1,2,3,4,6-penta-O-galloyl-beta-D-glucose has the effect of inhibiting wrinkle formation caused by UV light was examined. First, 7-week-old female hairless mice (albino SKH-1 hairless mice, Hanlim Experimental Animal Co., Suwon, Korea) were divided into the following three groups, each consisting of 10 animals.
as §1, with “cm^2.” for “cm^2. In the case of the group treated with UV light alone, a composition containing no 1,2,3,4,6-penta-O-galloyl-beta-D-glucose was applied to the mice in an amount of 200 μl/4 cm^2 in the same manner as the test group.”

[6] = tested on: albino SKH-1 hairless mice; assay: Epidermal thickening induced by UV light in hairless mouse model (H&E staining); type: in vivo; conditions: UV B 10 weeks, topical 10 mg/200 μl/4 cm^2
From the text: as §1

[7] = tested on: type I procollagen; assay: Type I procollagen expression in skin of UV-irradiated hairless mice (immunohistochemistry); type: in vivo, mouse; conditions: UV B 10 weeks, topical 10 mg/200 μl/4 cm^2
From the text: as §1

[8] = tested on: albino SKH-1 hairless mice; assay: Collagen formation/degradation after UV light in hairless mouse model (masson trichome staining); type: in vivo; conditions: UV B 10 weeks, topical 10 mg/200 μl/4 cm^2
From the text: as §1

[9] = human normal dermal fibroblasts, UV A 50 mJ/cm^2 or UV B 170 mJ/cm^2, 1 and 10 μg/ml, 24 hours, concentration-dependent, vs UV light alone
[10] = in vitro, UV-irradiated human skin fibroblasts, comparison with EGCG control group

`O=C(OC[C@H]1O[C@@H](OC(=O)c2cc(O)c(O)c(O)c2)[C@H](OC(=O)c2cc(O)c(O)c(O)c2)[C@@H](OC(=O)c2cc(O)c(O)c(O)c2)[C@@H]1OC(=O)c1cc(O)c(O)c(O)c1)c1cc(O)c(O)c(O)c1` [1,2,3,4,6-penta-O-galloyl-beta-D-glucose] was tested, and the “expression of MMP-1 in skin tissue” value [1] was “this increase in expression was inhibited”, the “expression of COX-2” value [2] was “reduced the expression of COX-2 in a concentration-dependent manner” and the “expression of type I procollagen” value [3, 9] was “an increase in the expression of type I procollagen”. For the same compound, the “expression of type I procollagen compared to EGCG” value [3, 10] was “marked increase in the expression of type I procollagen compared to the case of treatment with EGCG”, the “expression of MMP-1” value [4, 9] was “a decrease in the expression of MMP-1” and the “inhibitory effect on MMP-1 compared to EGCG” value [4, 10] was “much more superior to the MMP-1 inhibitory effect of EGCG”. The “frequency of wrinkle formation” value [5] was “reduced the frequency of wrinkle formation”, the “thickening of the skin epidermal layer” value [6] was “the thickening of the skin epidermal layer was significantly decreased” and the “expression of type I procollagen in skin tissue” value [7] was “the expression of type I procollagen was increased compared to the group treated with UV light alone”. For the same compound, the amount of collagen [8] was “the amount of collagen was increased compared to the group treated with UV light alone” and the “amount of damaged collagen” value [8] was “the amount of damaged collagen was decreased”.
